Experimental data taken from patent publication EP3072514A1, “Novel oral anticoagulants (NOACs) for preventing development and aggravation of atrial fibrillation” (Université Pierre et Marie Curie - Paris 6 (UPMC), priority 2015, dated 2016).

Assays:
blood coagulation = test: Thrombin time (TT) on blood collected by cardiac puncture at sacrifice of I/R rats; assay type: in vivo, Male OFA Sprague-dawley rats; conditions: 25 mg/kg/day (12.5 mg/kg BID) by force-feeding; with reference to the mean value of sham animals
Description: • Figure 1 is a combination of two graphs showing left atrium (LA) area after one month of treatment with DTI Dabigatran (A) or S35792 (B). Vehicle (V) is 60% H2O/40% PEG 300 for dabigatran and saline for S35972. Treatment of rats started just after thoracotomy without (Sham) or with occlusion of left coronary artery followed by reperfusion (I/R). […] Vehicle (V) is 60% H2O/40% PEG 300 for dabigatran and saline for S35972. Treatment of rats started just after thoracotomy without (Sham) or with occlusion of left coronary artery followed by reperfusion (I/R). Results are presented as mean +/- S.E.M. * P<0.05; ** P<0.001, *** P<0.001 vs Sham; #P<0.05 vs untreated I/R. • Figure 3 is a combination of two graphs showing thrombin time (TT), which reflects anticoagulant activity, and plasma concentrations of Dabigatran (A) and S35792 (B) in rats after throracotomy with occlusion of left coronary artery followed by reperfusion (I/R). Vehicle (V) is 60% H2O/40% PEG 300 for dabigatran and saline for S35972. […] DTI plasma levels are quantified using LC-MS/MS. TT are expressed as mean +/- S.E.M with reference to the mean value of sham animals that underwent thoracotomy only. *** P<0.001 vs untreated I/R. • Figure 4 is a combination of three graphs showing left atrium (LA) area (A) and diameter (B) and left ventricle end-diastolic (LVED) diameter (C) after two months of treatment with S35972. […] LA area was measured by bidimensional echocardiography. LA and LVED diameters were measured in time-motion mode. […] AF duration is measured as the time between the end of the electric stimulation and the return to sinusoidal rhythm. […] Expression of mRNA was measured with real-time qPCR. […] Expression of mRNA was measured with real-time qPCR. […] Expression of mRNA was measured with real-time qPCR. […] LA area was measured by bidimensional echocardiography. LVED and LA diameters were measured in time-motion mode. […] AF duration is measured as the time between the end of the electric stimulation and return to sinusoidal rhythm. […]

[1] = Plasma concentration by LC-MS/MS in I/R rats; parameters: species or system Male OFA Sprague-dawley rats; conditions: rat, in vivo; 25 mg/kg/day (12.5 mg/kg BID) by force-feeding, 4 weeks; blood 90 minutes after last oral administration; ± SD
Description: • Figure 1 is a combination of two graphs showing left atrium (LA) area after one month of treatment with DTI Dabigatran (A) or S35792 (B). Vehicle (V) is 60% H2O/40% PEG 300 for dabigatran and saline for S35972. Treatment of rats started just after thoracotomy without (Sham) or with occlusion of left coronary artery followed by reperfusion (I/R). Results are presented as mean +/- S.E.M, *P<0.05, **P<0.01 and *** P<0.001 vs Sham; ^##P<0.01 and ^###P<0.001 vs untreated I/R. • Figure 2 is a combination of graphs showing left ventricular end-diastolic (LVED) diameter and fractional shortening (FS) after one month of treatment with Dabigatran (A) or S35792 (B). Vehicle (V) is 60% H2O/40% PEG 300 for dabigatran and saline for S35972. Treatment of rats started just after thoracotomy without (Sham) or with occlusion of left coronary artery followed by reperfusion (I/R). Results are presented as mean +/- S.E.M. * P<0.05; ** P<0.001, *** P<0.001 vs Sham; #P<0.05 vs untreated I/R. • Figure 3 is a combination of two graphs showing thrombin time (TT), which reflects anticoagulant activity, and plasma concentrations of Dabigatran (A) and S35792 (B) in rats after throracotomy with occlusion of left coronary artery followed by reperfusion (I/R). Vehicle (V) is 60% H2O/40% PEG 300 for dabigatran and saline for S35972. […] DTI plasma levels are quantified using LC-MS/MS. TT are expressed as mean +/- S.E.M with reference to the mean value of sham animals that underwent thoracotomy only. *** P<0.001 vs untreated I/R. • Figure 4 is a combination of three graphs showing left atrium (LA) area (A) and diameter (B) and left ventricle end-diastolic (LVED) diameter (C) after two months of treatment with S35972. […] LA area was measured by bidimensional echocardiography. LA and LVED diameters were measured in time-motion mode. […] AF duration is measured as the time between the end of the electric stimulation and the return to sinusoidal rhythm. […] Expression of mRNA was measured with real-time qPCR. […] Expression of mRNA was measured with real-time qPCR. […]

In the case of `[H]/N=C(/N)c1ccc(NCc2nc3cc(C(=O)N(CCC(=O)O)c4ccccn4)ccc3n2C)cc1` [dabigatran, reference compound], the “thrombin time increases by a factor” value (blood coagulation) is reported as 8 and the concentration at 1.5 h [1] is reported as 49.2 ± 19.3 ng/mL.
